According to article PMC7926627, “Fine-Tuning the Biological Profile of Multitarget Mitochondriotropic Antioxidants for Neurodegenerative Diseases” (Antioxidants, 2021):
Several values for one entry are separate records, joined by “and”; a condition that tells them apart may be missing. Equal values may be shown once. Read-outs that look alike come from different tables or passages of the source. Marks after values point to notes of the source that are not given here.

How the values were obtained:
[1] = molecular target: T1, eeAChE (electric eel acetylcholinesterase) (Electrophorus electricus, UniProt O42275); assay: eeAChE inhibition, Ellman's method; format: biochemical
T1 construct: Eel acetylcholinesterase (eeAChE, E.C. 3.1.1.7, from Electrophorus electricus); purchased Sigma Aldrich
T1 sequence (O42275 24-633): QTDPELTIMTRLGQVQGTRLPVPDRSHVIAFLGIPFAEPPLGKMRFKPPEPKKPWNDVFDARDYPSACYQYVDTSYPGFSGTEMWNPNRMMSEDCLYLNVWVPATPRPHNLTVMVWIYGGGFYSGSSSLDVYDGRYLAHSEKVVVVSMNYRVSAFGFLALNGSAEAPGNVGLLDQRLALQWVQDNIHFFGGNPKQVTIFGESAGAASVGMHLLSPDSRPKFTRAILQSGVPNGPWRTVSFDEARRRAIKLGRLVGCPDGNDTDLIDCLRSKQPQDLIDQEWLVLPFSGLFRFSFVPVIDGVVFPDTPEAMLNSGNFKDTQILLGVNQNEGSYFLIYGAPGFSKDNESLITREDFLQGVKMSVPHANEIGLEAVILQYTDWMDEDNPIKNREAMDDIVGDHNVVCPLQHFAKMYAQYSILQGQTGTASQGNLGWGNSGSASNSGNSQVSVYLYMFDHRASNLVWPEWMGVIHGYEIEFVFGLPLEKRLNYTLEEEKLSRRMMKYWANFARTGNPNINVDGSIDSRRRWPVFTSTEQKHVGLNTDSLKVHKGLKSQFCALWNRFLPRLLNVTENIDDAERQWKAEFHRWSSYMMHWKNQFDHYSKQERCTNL
Method: (§1) The eeAChE and eqBChE inhibitory activities of the compounds under study were determined following the Ellman’s method [32, 33]
(§2) Substrate solutions (ATCI or BCTI) were prepared in deionized water (conductivity ˂ 0.1 µS.cm-
(§3) Evaluation of eel acetylcholinesterase and equine butyrylcholinesterase inhibitory
(§4) The eeAChE and eqBChE inhibitory activities of the compounds under study were evaluated following the Ellman’s method [1, 2]. Briefly, a mixture containing sodium phosphate buffer, enzyme (final concentration: eeAChE 0.05 U/mL and eeBChE 0.05 U/mL), DTNB (final concentration: 400 µM) and the test compounds/reference inhibitors were preincubated for 5 minutes at 30 °C in a 96-well microplate (BRANDplates, pureGradeTM, BRAND GMBH, Wertheim, Germany). In control experiments, sodium phosphate buffer was used instead of the
(§5) ºC in a microplate reader (BioTek Synergy HT from BioTek Instruments, Winooski, VT, USA).
(§6) The rates of the substrate enzymatic hydrolysis were determined, normalized and plotted against the respective inhibitor concentration. IC50 values were obtained from the dose-response curves
(§7) and were expressed as mean ± standard deviation. IC50 values were determined in at least three
(§8) independent experiments, each performed at least in triplicates.

[2] = molecular target: T2, eqBChE (equine butyrylcholinesterase) (Equus caballus, UniProt P81908); assay: biochemical
T2 construct: butyrylcholinesterase (eqBuChE, E.C. 3.1.1.8, from equine serum); purchased Sigma Aldrich; host or cells: equine serum
T2 sequence (P81908 whole entry): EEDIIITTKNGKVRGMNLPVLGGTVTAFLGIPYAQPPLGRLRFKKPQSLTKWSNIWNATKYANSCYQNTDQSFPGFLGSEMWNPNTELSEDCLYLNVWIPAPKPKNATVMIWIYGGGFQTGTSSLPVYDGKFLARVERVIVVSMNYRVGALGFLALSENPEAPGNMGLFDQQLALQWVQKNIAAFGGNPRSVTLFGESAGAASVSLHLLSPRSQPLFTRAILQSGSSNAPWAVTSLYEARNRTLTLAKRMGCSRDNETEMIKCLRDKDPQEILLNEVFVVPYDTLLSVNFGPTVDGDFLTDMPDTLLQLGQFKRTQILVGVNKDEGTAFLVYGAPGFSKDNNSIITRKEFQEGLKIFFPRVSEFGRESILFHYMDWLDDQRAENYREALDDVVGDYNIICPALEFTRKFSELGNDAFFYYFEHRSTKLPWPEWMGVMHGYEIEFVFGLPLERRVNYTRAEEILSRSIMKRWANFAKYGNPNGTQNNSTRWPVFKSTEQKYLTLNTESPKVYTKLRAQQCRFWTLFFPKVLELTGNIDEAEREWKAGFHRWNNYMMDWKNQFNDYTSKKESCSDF
Method: as §1, §2, §3, §4, §5, §6, §7, §8

[3] = molecular target: T3, hMAO-A (Homo sapiens, UniProt P21397); assay: hMAO-A inhibition, kynuramine substrate; format: biochemical
T3 construct: purchased Sigma Aldrich; host or cells: insect cells (BTI-TN-5B1-4), baculovirus
T3 sequence (P21397 1-527): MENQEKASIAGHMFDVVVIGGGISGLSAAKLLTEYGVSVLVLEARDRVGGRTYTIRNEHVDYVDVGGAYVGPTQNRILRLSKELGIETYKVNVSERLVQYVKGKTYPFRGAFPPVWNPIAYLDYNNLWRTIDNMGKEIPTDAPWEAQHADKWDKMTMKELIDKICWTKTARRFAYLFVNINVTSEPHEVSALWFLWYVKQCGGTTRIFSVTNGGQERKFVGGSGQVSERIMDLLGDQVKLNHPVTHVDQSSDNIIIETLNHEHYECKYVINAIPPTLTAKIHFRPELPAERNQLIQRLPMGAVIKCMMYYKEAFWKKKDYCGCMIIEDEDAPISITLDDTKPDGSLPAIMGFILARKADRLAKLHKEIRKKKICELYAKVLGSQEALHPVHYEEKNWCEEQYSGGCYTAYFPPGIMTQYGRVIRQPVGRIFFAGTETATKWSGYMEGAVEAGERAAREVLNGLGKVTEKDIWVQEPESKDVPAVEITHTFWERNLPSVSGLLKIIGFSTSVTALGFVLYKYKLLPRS
Method: (§9) The inhibitory activity of lipophilic TPP^+ cations on hMAO-A and hMAO-B was studied using an experimental protocol described elsewhere [29, 40]
(§10) Evaluation of human monoamine oxidase (hMAO) inhibitory activity The human monoamine oxidase (hMAO) inhibitory outline was assessed in microsomal MAO isoforms prepared from insect cells (BTI-TN-5B1-4) infected with recombinant baculovirus containing cDNA inserts for hMAO-A or hMAO-B an d by measuring the enzymatic conversion rates of kynuramine into 4-hydroxyquinoline. The appropriate amounts of hMAO-A and hMAO-B were adjusted to obtain, in our experimental conditions, the same maximum
(§11) All assays were performed in sodium phosphate buffer solution 50 mM pH 7.4.
(§12) The compounds under study and reference inhibitors were pre-incubated at 37 °C for 10
(§13) concentration: 2×Km) in 96-well microplates (BRANDplates, pureGradeTM, BRAND GMBH, Wertheim, Germany). Then, the reaction was started with the addition of hMAO-A or hMAO-B.
(§14) Initial velocities were determined spectrophotometrically in a microplate reader (BioTek Synergy HT from BioTek Instruments, Winooski, VT, USA) at 37 °C by measuring the formation of 4-
(§15) The initial velocities, obtained from the linear phase of product formation, were normalized and plotted against the respective inhibitor concentration. IC50 values were obtained from dose-response curves and were expressed as mean ± standard deviation. IC50 values were determined from at least three independent experiments, each performed in triplicate.

[4] = Oxygen radical absorbance capacity (ORAC-FL) assay; conditions: for ORAC-FL Index: relative Trolox equivalent ORAC value
[5] = test system: differentiated SH-SY5Y cells; assay: Resazurin reduction assay (cytotoxicity); format: cell-based, human; conditions: 24 h, concentrations up to 100 µM
Method: For cytotoxicity studies, differentiated SH-SY5Y cells were incubated with increasing concentrations of the test compounds (0.20–100 µM) for 24 h. Controls were treated with culture media containing 0.1% DMSO. Cell viability was estimated using two different methods: resazurin reduction assay and NR uptake assay. […]
days. The cultures were passaged once a week by trypsinization (0.25 % trypsin/1 mM EDTA).
To avoid phenotypic changes, the cells used for all experiments were taken between 19th and 28th passages. Cells were differentiated as described previously by Fernandes et al.. Briefly, SH-SY5Y cells were seeded onto 96-well plates at a density of 25,000 cells/cm2 in cell culture medium with trans-retinoic acid (RA) (final concentration of 10 µM) and incubated for 3 days at 37 °C in a humidified, 5% CO2−95% air atmosphere. The cell culture medium was then removed and replaced with medium supplemented with 12-O-tetradecanoylphorbol-13-acetate (TPA) (final concentration 80 nM), and cells were incubated for 3 days. Stock solutions of RA (10 mM) and TPA (80 µM) were prepared in DMSO.
1.5.3. Cytotoxicity assays
1.5.3.1. Resazurin reduction assay
Resazurin is a non-fluorescent, non-toxic water-soluble dye able to permeate through cell […]
highly fluorescent resorufin [8, 9]. Since the conversion of resazurin into resorufin occurs mostly in mitochondria, the amount of resorufin produced can be used as indicator of metabolic activity. The quantity of resorufin production is proportional to the number of viable cells in culture and can be quantified fluorometrically or colorimetrically.
Resazurin reduction assay was performed as previously described by Fernandes et al..
Briefly, after the 24 h incubation periods with the test compounds, the cell culture medium was removed and replaced with fresh culture medium with resazurin (10 μg/mL) prepared in cell culture medium. Differentiated SH-SY5Y cells were incubated for 2 h at 37 °C in a humidified 5% CO2−95% air atmosphere. Then, the fluorescence was read in a multiwell microplate reader (PowerWave XS from BioTek Instruments, Vermont, US), using an excitation wavelength of 540 nm and an emission wavelength of 590 nm. The results were expressed as the percentage of resazurin reduction relative to that of the control (non-treated) cells [resazurin reduction (% of […]
1.5.3.2. Neutral red uptake assay
The neutral red (NR) uptake assay is based on the ability of viable cells to incorporate the supravital dye NR and retain it inside the lysosomes. NR uptake assay was performed as previously described by Fernandes et al. Briefly, after the 24 h incubation periods with the test compounds, the cell culture medium was removed and NR solution ([…]) in fresh cell culture medium was added. Differentiated SH-SY5Y cells and Caco-2 cells were incubated for 2 h and 1 h, respectively, at 37 °C in a humidified, 5% CO2−95% air atmosphere. Then, the cell culture medium was removed and replaced by ethanol absolute/distilled water (1:1) with 5 % acetic acid to liberate the dye from the viable cells. The absorbance was measured at 540 nm in a […]

[6] = test system: differentiated SH-SY5Y cells; assay: Neutral red (NR) uptake assay (cytotoxicity); format: cell-based, human; conditions: 24 h, increasing concentrations up to 100 µM
Method: To avoid phenotypic changes, the cells used for all experiments were taken between 19th and 28th passages. Cells were differentiated as described previously by Fernandes et al. [6]. Briefly, SH-SY5Y cells were seeded onto 96-well plates at a density of 25,000 cells/cm2 in cell culture medium with trans-retinoic acid (RA) (final concentration of 10 µM) and incubated for 3 days at
The neutral red (NR) uptake assay is based on the ability of viable cells to incorporate the supravital dye NR and retain it inside the lysosomes [11]. NR uptake assay was performed as previously described by Fernandes et al. [12] Briefly, after the 24 h incubation periods with the test compounds, the cell culture medium was removed and NR solution (50 mg/mL) in fresh cell culture medium was added. Differentiated SH-SY5Y cells and Caco-2 cells were incubated for 2
multiwell microplate reader (PowerWave XS from BioTek Instruments). The results were
expressed as the percentage of NR uptake relative to that of the control (non-treated) cells [NR
uptake (% of control)] ± standard error mean (SEM) of at least three independent experiments.
Stock solutions of the test compounds (10 µM) were prepared in DMSO and diluted in

[7] = parameters: method as in Teixeira et al. [19],[20]; conditions: ref Teixeira et al. [19],[20]; cited from earlier work
[8] = Chromatographic hydrophobicity index by gradient RP-HPLC at pH 2.3
Method: Chromatographic hydrophobicity indexes (CHIs) at pH 2.3 were determined using an experimental protocol described elsewhere [45, 46] and included in the supplementary information.
Evaluation of the chromatographic hydrophobicity index
Chromatographic hydrophobicity indexes (CHIs) values were determined using the
retention times (tR) of samples and a mixture of reference compounds. The data was acquired on
a Shimadzu high-performance liquid chromatograph SPD-M20A system (Shimadzu, Kyoto,
Japan) with a Luna C18 (2) column (Phenomenex, CA, USA) 150×4.6 mm, 5 µm. In CHI
determinations at pH 2.3, mobile phase A was aqueous solution of acetic acid 1 % (v/v) (pH 2.3),
and mobile phase B was acetonitrile. The following gradient program was applied: 1 mL/min
Calibration plots were obtained using a mixture of the following compounds:
paracetamol, theophylline, caffeine, benzimidazole, colchicine, carbamazepine, indole,
propiophenone, butyrophenone, valerophenone, and heptanophenone (Table S1, Figure S2).
hydrophobicity index (CHI) values were calculated as previously described [13, 14].

[9] = molecular target: T4, hMAO-B (Homo sapiens, UniProt P27338); assay: biochemical; parameters: purchased Sigma Aldrich; host or cells: insect cells (BTI-TN-5B1-4), baculovirus
T4 sequence (P27338 1-520): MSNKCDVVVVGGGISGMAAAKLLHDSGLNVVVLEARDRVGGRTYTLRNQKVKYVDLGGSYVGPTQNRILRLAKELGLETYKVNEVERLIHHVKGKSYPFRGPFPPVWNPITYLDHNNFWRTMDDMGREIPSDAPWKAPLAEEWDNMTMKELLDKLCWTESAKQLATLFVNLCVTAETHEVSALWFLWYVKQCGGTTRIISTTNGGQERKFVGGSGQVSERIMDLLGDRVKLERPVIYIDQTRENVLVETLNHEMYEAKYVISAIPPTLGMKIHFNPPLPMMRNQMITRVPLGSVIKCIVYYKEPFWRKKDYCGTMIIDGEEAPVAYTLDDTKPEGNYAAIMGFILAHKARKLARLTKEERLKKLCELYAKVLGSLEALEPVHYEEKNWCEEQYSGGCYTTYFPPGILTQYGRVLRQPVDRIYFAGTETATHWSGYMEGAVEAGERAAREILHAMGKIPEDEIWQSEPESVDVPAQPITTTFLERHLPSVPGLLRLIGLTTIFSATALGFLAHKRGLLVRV
Method: as §9, §10, §11, §12, §13, §14, §15

[10] = parameters: method as in Camurri et al. [13]; conditions: standard mixture for calibration; ref Camurri et al. [13]; cited from earlier work
[11] = molecular target: T3, hMAO-A; parameters: method as in Chavarria et al. [29]; conditions: read-out: IC50 hMAO-A; ref Chavarria et al. [29]; cited from earlier work
[12] = molecular target: T4, hMAO-B; conditions: read-out: IC50 hMAO-B; ref Chavarria et al. [29]; cited from earlier work
[13] = test system: differentiated SH-SY5Y cells; conditions: at concentrations up to 50 µM; ref [58]; cited from earlier work
[14] = molecular target: T2, eqBChE (equine butyrylcholinesterase); parameters: method as in Benfeito et al. [22]; conditions: ref Benfeito et al. [22]; cited from earlier work

Structure (SMILES): O=C(/C=C/c1ccc(O)c(O)c1)NCCCCCCCC[P+](c1ccccc1)(c1ccccc1)c1ccccc1 [AntiOXCIN3, reference compound]
- IC50 [1]: 5.08 ± 0.22 µM
- SI (1): eqBChE selectivity index = IC50(eeAChE)/IC50(eqBChE) [2]: 16
- IC50 ([2]; read-out: IC50 eqBChE): 0.325 ± 0.09 µM
- IC50 [3]: > 10 µM
- inhibition at 10 µM [3]: < 50%
- ORAC-FL Index [4]: 2.6 ± 0.1
- effect on resazurin reduction [5]: did not markedly affect
- effect on NR uptake [6]: did not markedly affect
- Ep (redox potential) [7]: 164 mV and 164 ^a mV
- CHI [8]: 41.4
- IC50 [9]: > 10 µM
- inhibition at 10 µM [9]: < 50%

Structure (SMILES): CCCC(=O)c1ccccc1 [Butyrophenone]
- CHI0 pH 2.3 [10]: 87.3

Structure (SMILES): c1ccc2[nH]ccc2c1 [Indole]
- CHI0 pH 2.3 [10]: 72.1

Structure (SMILES): NC(=O)N1c2ccccc2C=Cc2ccccc21 [Carbamazepine]
- CHI0 pH 2.3 [10]: 60.42

Structure (SMILES): CCCCCCC(=O)c1ccccc1 [Heptanophenone]
- CHI0 pH 2.3 [10]: 112.1

Structure (SMILES): CCC(=O)c1ccccc1 [Propiophenone]
- CHI0 pH 2.3 [10]: 77.4

Structure (SMILES): COc1cc2c(c(OC)c1OC)-c1ccc(OC)c(=O)cc1[C@@H](NC(C)=O)CC2 [Colchicine]
- CHI0 pH 2.3 [10]: 43.9

Structure (SMILES): c1ccc2[nH]cnc2c1 [Benzimidazole]
- CHI0 pH 2.3 [10]: 6.30

Structure (SMILES): O=C(C=CC=Cc1ccc2c(c1)OCO2)N1CCCCC1 [Compound 1, 1-[5-(1,3-benzodioxol-5-yl)-1-oxo-2,4-pentadienyl]piperidine]
- ROO• radical scavenging ([4]; ORAC-FL): unable to scavenge ROO• radicals
- IC50 [11]: > 10 µM
- IC50 [12]: 1.05 ± 0.08 µM
- cytotoxic effects [13]: did not exhibit cytotoxic effects
- CHI [8]: 73.4

Structure (SMILES): O=C(/C=C/c1ccc(O)c(O)c1)NCCCCCC[P+](c1ccccc1)(c1ccccc1)c1ccccc1 [AntiOXCIN2, reference compound]
- IC50 [3]: > 10 µM
- inhibition at 10 µM [3]: < 50%
- ORAC-FL Index [4]: 2.8 ± 0.1
- effect on resazurin reduction [5]: did not markedly affect
- effect on NR uptake [6]: did not markedly affect
- IC50 [14]: 0.124 ± 0.007 µM
- SI (1): eqBChE selectivity index = IC50(eeAChE)/IC50(eqBChE) [14]: 51 ^d
- Ep (redox potential) [7]: 166 mV and 166 ^a mV
- CHI [8]: 37.9
- IC50 [9]: > 10 µM
- inhibition at 10 µM [9]: < 50%

Structure (SMILES): Cn1c(=O)c2[nH]cnc2n(C)c1=O [Theophyline]
- CHI0 pH 2.3 [10]: 17.9

Structure (SMILES): CC(=O)Nc1ccc(O)cc1 [Paracetamol]
- CHI0 pH 2.3 [10]: 18.77

Structure (SMILES): Cn1c(=O)c2c(ncn2C)n(C)c1=O [Caffeine]
- CHI0 pH 2.3 [10]: 23.41

Structure (SMILES): CCCCC(=O)c1ccccc1 [Valerophenone]
- CHI0 pH 2.3 [10]: 96.4
